# Patent publication US6214340A, “Physiologically active substance sulphostin, process for producing the same, and use thereof” (Zaidan Hojin Biseibutsu Kagaku Kenkyu Kai, priority 1997, dated 2001)
# Test: Solubility (physicochemical properties)
# Excerpt: The physicochemical properties of the thus obtained physiologically active substance sulphostin are shown below.
# 4) Solubility: soluble in water and insoluble in lower alcohol, acetone, ethyl acetate, hexane and petroleum ether.
compound,measurement,setting,value
NC1CCCN(P(N)(=O)NS(=O)(=O)O)C1=O (centres unmarked) [sulphostin],Solubility,"in lower alcohol, acetone, ethyl acetate, hexane and petroleum ether",insoluble
same,Solubility,in water,soluble
